Where two headings read alike, the source gives them in different places.
Experiments:
[1] = Unified compartmental PK model (ADAPT5); set-up: species or system mice; conditions: for bioavailability: Balb/c, mouse, plasma, read-out: Model F (compartmental bioavailability)
Experimental: A unified compartmental PK model was developed using ADAPT5 [28] to fit the data, […]. Naïve-pooled concentration-time data from each study was used to estimate PK parameters that were shared between each treatment group. Model performance was determined and reported using parameter CV%, R^2, AIC (Akaike information criterion), as well as visually inspected with standardized residual plots. […] The amount of drug ultimately collected in this compartment allowed for calculation of the bioavailability. The developed model was then used to simulate expected plasma concentrations in the extensive PK study. Separately, tumor and plasma time concentration data from the extensive PK study was used to extend this model to add an uncoupled tumor compartment.

[2] = mouse, in vivo
Experimental: (§1) The vehicle for all groups was 10% DMSO, 40% propylene glycol, and 50% dH2O. […] Mice were euthanized by CO2 inhalation and the following tissues collected: blood, liver, kidney, lung, skeletal muscle, and brain.
(§2) Duplicate standard curves with calibrators consisting of 0.3, 1, 3, 10, 30 100, 300, and 1,000 ng/mL, in addition to blank plasma, were prepared fresh on days of analysis using control Balb/c mouse plasma (Innovative Research, Novi, MI). QCs were prepared in bulk and stored at −80 °C, with concentrations of 0.8 (QCL), 20 (QCM), and 800 ng/mL (QCH). […] The injection volume was 3 μL. […] Curve fitting was accomplished through linear regression with 1/y^2 weighting. Semi-quantitation of metabolites was accomplished by reporting IS normalized metabolite response.
(§3) Noncompartmental (NC) PK was determined using GraphPad Prism (San Diego, CA) using the linear trapezoidal method and Bailer method of AUC determination for estimates of exposure in plasma, RBC, tumors, and tissues [24]. PK parameters or analysis requiring dose were adjusted for the actual dose as determined using measurements of dosing solution. Dose-normalized plasma exposures, Cmax and AUC, of PO treated groups of the dose linearity studies were compared using ANOVA tests to determine dose linearity.
(§4) Tissue partition coefficients (PTissue) and RBC partitioning (PRBC) were calculated using Eq. (1) and tested among PO treated groups using ANOVA tests.
(§5) The resulting concentrations were multiplied by the volume or weight to convert to a total amount and then divided by 3 to account for the number of mice per cage. These amounts were then divided by the average total amount of drug administered to calculate the percent excreted by urine and feces, see Eq. (2). Renal clearance (ClR) was calculated by dividing the excreted amount by the plasma AUC, see Eq. (3) [25].
(§6) When available, plasma metabolite data was used to determine semi-quantitative exposure as well as metabolic ratios, using Eq. (4). The MR among PO treated groups in the dose linearity studies were compared using ANOVA testing. Metabolite presence was also analyzed in urine and feces.

in vivo = conditions: Balb/c, mouse
Experimental: as §1, §2, §3, §4, §5, §6

[3] = extensive PK study, model with uncoupled tumor compartment
[4] = non-linear model, dose linearity and bioavailability studies

Question: Which bioavailability ([1]; 2 mg/kg PO) does the source give for `C[C@@H]1COCCN1c1cc(C2([S@](C)(=N)=O)CC2)nc(-c2cc[nH]c3nccc2-3)n1` [AZD6738] here?
Answer: The bioavailability was 40.4%.

Question: What about the bioavailability ([1]; 7.5 mg/kg PO) of the same molecule?
Answer: The bioavailability was 61.5%.

Question: What about the bioavailability ([1]; 20 mg/kg PO) of the same molecule?
Answer: The bioavailability was 80.4%.

Question: And the bioavailability ([1]; 75 mg/kg PO)?
Answer: Its bioavailability is 90.8%.

Question: And the “Ka (fixed to dose linearity model estimate)” value [1, 3]?
Answer: The value was 0.234 min⁻¹.

Question: What about the “Kct (model estimate)” value [1, 3] of the same molecule?
Answer: Its value is 0.325 min⁻¹.

Question: What about the “Ktc (model estimate)” value [1, 3] of the same molecule?
Answer: Its value is 0.0537 min⁻¹.

Question: And the “Vc (model estimate)” value [1, 3]?
Answer: Its value is 5.04 L/kg.

Question: What about the “Ka (model estimate)” value [1, 4] of the same molecule?
Answer: The value was 0.234 min⁻¹.

Question: What about the “Km (model estimate, pre-systemic saturable efflux/metabolism)” value [1, 4] of the same molecule?
Answer: The value was 157 ng.

Question: What about the “Kna (model estimate)” value [1, 4] of the same molecule?
Answer: The value was 0.0120 min⁻¹.

Question: What about the “Vc (model estimate)” value [1, 4] of the same molecule?
Answer: Its value is 1.91 L/kg.

Question: And the “Vmax (model estimate, pre-systemic saturable efflux/metabolism)” value [1, 4]?
Answer: Its value is 1238 ng/min.

Question: And the “Vp (model estimate)” value [1, 4]?
Answer: The value was 2.61 L/kg.

Question: And the “Renal excretion of unaltered drug” value ([2]; Balb/c)?
Answer: The value was < 4 % of dose.

Question: What about the “decrease of apparent clearance (Cl/F/kg)” value ([2]; Balb/c, po) of the same molecule?
Answer: The value was “approximately 50%”.

Question: What about the “decrease of apparent volume of distribution (Vd/F/kg)” value ([2]; Balb/c, po) of the same molecule?
Answer: Its value is “approximately 50%”.

Question: What about the “excreted unchanged in the feces” value ([2]; Balb/c, po) of the same molecule?
Answer: Its value is 9.2-15.7 % of dose.

Question: What about the Cl ([2]; Balb/c, po, 2 mg/kg) of the same molecule?
Answer: The Cl was 75.7 mL/min/kg.

Question: What about the Vd ([2]; Balb/c, po, 2 mg/kg) of the same molecule?
Answer: The Vd was 11.4 L/kg.

Question: And the Cl ([2]; Balb/c, po, 7.5 mg/kg)?
Answer: The Cl was 58.8 mL/min/kg.

Question: What about the Vd ([2]; Balb/c, po, 7.5 mg/kg) of the same molecule?
Answer: Its Vd is 11.0 L/kg.

Question: And the Cl ([2]; Balb/c, po, 20 mg/kg)?
Answer: Its Cl is 40.4 mL/min/kg.

Question: What about the Vd ([2]; Balb/c, po, 20 mg/kg) of the same molecule?
Answer: The Vd was 5.50 L/kg.

Question: What about the Cl ([2]; Balb/c, po, 75 mg/kg) of the same molecule?
Answer: The Cl was 36.3 mL/min/kg.

Question: And the Vd ([2]; Balb/c, po, 75 mg/kg)?
Answer: The Vd was 6.06 L/kg.

Question: And the “Partitioning to lung, PO groups compared to the IV group” value [2]?
Answer: The value was “approximately two-fold higher”.

Question: And the “Penetration into the brain” value [2]?
Answer: The value was “limited”.

Question: What about the half-life (in vivo) of the same molecule?
Answer: Its half-life is 94.4 to 130 min.

Question: And the AUC(0-inf) (in vivo; iv, 10 mg/kg)?
Answer: Its AUC(0-inf) is 5620 ng·h/mL.

Question: And the CL renal (in vivo; iv, 10 mg/kg)?
Answer: The CL renal was 0.661 mL/min/kg.

Question: And the Cmax (in vivo; iv, 10 mg/kg)?
Answer: The Cmax was 7040 ng/mL.

Question: What about the Tmax (in vivo; iv, 10 mg/kg) of the same molecule?
Answer: The Tmax was 5 min.

Question: What about the Vd (in vivo; iv, 10 mg/kg) of the same molecule?
Answer: Its Vd is 4.92 L/kg.

Question: What about the half-life (in vivo; iv, 10 mg/kg) of the same molecule?
Answer: Its half-life is 98.6 min.

Question: And the AUC(0-inf) (in vivo; po, 2 mg/kg)?
Answer: The AUC(0-inf) was 423 ng·h/mL.

Question: What about the CL renal (in vivo; po, 2 mg/kg) of the same molecule?
Answer: Its CL renal is 1.97 mL/min/kg.

Question: What about the Cmax (in vivo; po, 2 mg/kg) of the same molecule?
Answer: The Cmax was 160 ng/mL.

Question: And the Tmax (in vivo; po, 2 mg/kg)?
Answer: Its Tmax is 60 min.

Question: What about the bioavailability (in vivo; po, 2 mg/kg) of the same molecule?
Answer: Its bioavailability is 45.7%.

Question: What about the half-life (in vivo; po, 2 mg/kg) of the same molecule?
Answer: The half-life was 104 min.

Question: What about the AUC(0-inf) (in vivo; po, 7.5 mg/kg) of the same molecule?
Answer: Its AUC(0-inf) is 2400 ng·h/mL.

Question: And the CL renal (in vivo; po, 7.5 mg/kg)?
Answer: The CL renal was 1.88 mL/min/kg.

Question: And the Cmax (in vivo; po, 7.5 mg/kg)?
Answer: Its Cmax is 1460 ng/mL.

Question: And the Tmax (in vivo; po, 7.5 mg/kg)?
Answer: Its Tmax is 15 min.

Question: And the bioavailability (in vivo; po, 7.5 mg/kg)?
Answer: The bioavailability was 58.8%.

Question: And the half-life (in vivo; po, 7.5 mg/kg)?
Answer: Its half-life is 130 min.

Question: What about the AUC(0-inf) (in vivo; po, 20 mg/kg) of the same molecule?
Answer: Its AUC(0-inf) is 9630 ng·h/mL.

Question: What about the CL renal (in vivo; po, 20 mg/kg) of the same molecule?
Answer: The CL renal was 1.53 mL/min/kg.

Question: And the Cmax (in vivo; po, 20 mg/kg)?
Answer: Its Cmax is 4960 ng/mL.

Question: What about the Tmax (in vivo; po, 20 mg/kg) of the same molecule?
Answer: Its Tmax is 15 min.

Question: And the bioavailability (in vivo; po, 20 mg/kg)?
Answer: The bioavailability was 85.5%.

Question: And the half-life (in vivo; po, 20 mg/kg)?
Answer: The half-life was 94.4 min.

Question: And the AUC(0-inf) (in vivo; po, 75 mg/kg)?
Answer: Its AUC(0-inf) is 41600 ng·h/mL.

Question: And the CL renal (in vivo; po, 75 mg/kg)?
Answer: The CL renal was 1.14 mL/min/kg.

Question: What about the Cmax (in vivo; po, 75 mg/kg) of the same molecule?
Answer: Its Cmax is 12000 ng/mL.

Question: And the Tmax (in vivo; po, 75 mg/kg)?
Answer: Its Tmax is 15 min.

Question: What about the bioavailability (in vivo; po, 75 mg/kg) of the same molecule?
Answer: Its bioavailability is 95.2%.

Question: And the half-life (in vivo; po, 75 mg/kg)?
Answer: Its half-life is 116 min.

Source: paper PMC8829872 (Cancer chemotherapy and pharmacology, 2022)
